Assay results reported in patent publication US8389550B2, “Isoxazoles / O-pyridines with ethyl and ethenyl linker” (Hoffmann-La Roche Inc., priority 2009, dated 2013).

The compounds below were run against T1, human GABA A α5 receptor (α5β3γ2) (Homo sapiens, UniProt P18507+P31644) (assay: [3H]flumazenil competition binding assay, HEK293 cells expressing human receptors). Conditions: displacement of [3H]flumazenil (0.5 nM); HEK293 cells transiently expressing human α5β3γ2; means of two determinations; read-out: hKi GABA A α5.
T1 construct: expressed in transfected cells; host or cells: HEK293 cells, transiently transfected; membranes prepared from cell pellets
Procedure: Membrane Preparation and Binding Assay
The affinity of compounds at GABA A receptor subtypes was measured by competition for [3H]flumazenil (85 Ci/mmol; Roche) binding to HEK293 cells expressing rat (stably transfected) or human (transiently transfected) receptors of composition α1β3γ2, α2β3γ2, α3β3γ2 and α5β3γ2.
Cell pellets were suspended in Krebs-tris buffer (4.8 mM KCl, 1.2 mM CaCl2, 1.2 mM MgCl2, 120 mM NaCl, 15 mM Tris; pH 7.5; binding assay buffer), homogenized by polytron for ca. 20 sec on ice and centrifuged for 60 min at 4° C. (50000 g; Sorvall, rotor: SM24=20000 rpm). The cell pellets were resuspended in Krebs-tris buffer and homogenized by polytron for ca. 15 sec on ice. Protein was measured (Bradford method, Bio-Rad) and aliquots of 1 mL were prepared and stored at −80° C.
Radioligand binding assays were carried out in a volume of […] (96-well plates) which contained […] of cell membranes, [3H]flumazenil at a concentration of 1 nM for α1, α2, α3 subunits and 0.5 nM for α5 subunits and the test compound in the range of […]. Nonspecific binding was defined by 10^−5 M diazepam and typically represented less than 5% of the total binding. Assays were incubated to equilibrium for 1 hour at 4° C. and harvested onto GF/C uni-filters (Packard) by filtration using a Packard harvester and washing with ice-cold wash buffer (50 mM Tris; pH 7.5). After drying, filter-retained radioactivity was detected by liquid scintillation counting. Ki values were calculated using Excel-Fit (Microsoft) and are the means of two determinations.
Representative test results, obtained by the above described assay measuring binding affinity to HEK293 cells expressing human (h) receptors, are shown in table 1 below: […]

SMILES	Ki [nM]
Cc1onc(-c2ccccc2)c1CCc1ccc(C(=O)NC(C)C)cn1 [Example 16, N-Isopropyl-6-[2-(5-methyl-3-phenyl-isoxazol-4-yl)-ethyl]-nicotinamide]	57.6
Cc1onc(-c2ccccc2)c1/C=C/c1ccc(C(=O)NC(C)C)cn1 [Example 2, N-Isopropyl-6-[(E)-2-(5-methyl-3-phenyl-isoxazol-4-yl)-vinyl]-nicotinamide]	5
COC(=O)c1ccc(/C=C/c2c(-c3ccccc3)noc2C)nc1 [Example 1, 6-[(E)-2-(5-Methyl-3-phenyl-isoxazol-4-yl)-vinyl]nicotinic acid methyl ester]	13.9
CCCCc1noc(C)c1/C=C/c1ccc(C(=O)NC(C)CO)cn1 (stereo not drawn) [Example 10, 6-[(E)-2-(3-Butyl-5-methyl-isoxazol-4-yl)-vinyl]-N-(2-hydroxy-1-methyl-ethyl)-nicotinamide]	8.2
CCCCc1noc(C)c1CCc1ccc(C(=O)NC2CCOC2)cn1 (stereo not drawn) [Example 18, 6-[2-(3-Butyl-5-methyl-isoxazol-4-yl)-ethyl]-N-(tetrahydro-furan-3-yl)-nicotinamide]	58.6
CCCCc1noc(C)c1/C=C/c1ccc(C(=O)NCC(C)(C)O)cn1 [Example 11, 6-[(E)-2-(3-Butyl-5-methyl-isoxazol-4-yl)-vinyl]-N-(2-hydroxy-2-methyl-propyl)-nicotinamide]	16.3
CCCCc1noc(C)c1/C=C/c1ccc(C(=O)N[C@@H](C)CO)cn1 [Example 14, 6-[(E)-2-(3-Butyl-5-methyl-isoxazol-4-yl)-vinyl]-N—((S)-2-hydroxy-1-methyl-ethyl)-nicotinamide]	14.1
CCCCc1noc(C)c1CCc1ccc(C(=O)NC(C)CO)cn1 (stereo not drawn) [Example 17, 6-[2-(3-Butyl-5-methyl-isoxazol-4-yl)-ethyl]-N-(2-hydroxy-1-methyl-ethyl)-nicotinamide]	49.4
Cc1onc(-c2ccccc2)c1/C=C/c1ccc(C(=O)NC(C)CO)cn1 (stereo not drawn) [Example 5, N-(2-Hydroxy-1-methyl-ethyl)-6-[(E)-2-(5-methyl-3-phenyl-isoxazol-4-yl)-vinyl]-nicotinamide]	2.9
CCCCc1noc(C)c1/C=C/c1ccc(C(=O)NC(CO)CO)cn1 [Example 15, 6-[(E)-2-(3-Butyl-5-methyl-isoxazol-4-yl)-vinyl]-N-(2-hydroxy-1-hydroxymethyl-ethyl)-nicotinamide]	5.3
Cc1onc(-c2ccccc2)c1/C=C/c1ccc(C(=O)NCCO)cn1 [Example 4, N-(2-Hydroxy-ethyl)-6-[(E)-2-(5-methyl-3-phenyl-isoxazol-4-yl)-vinyl]-nicotinamide]	2
Cc1onc(-c2ccccc2)c1/C=C/c1ccc(C(=O)O)cn1 [Example 6, 6-[(E)-2-(5-Methyl-3-phenyl-isoxazol-4-yl)-vinyl]-nicotinic acid]	38.6

Other lines, results leading:

Ki [nM]	SMILES
6	Cc1onc(-c2ccccc2)c1/C=C/c1ccc(C(=O)NC2CCOCC2)cn1 [Example 3, 6-[(E)-2-(5-Methyl-3-phenyl-isoxazol-4-yl)-vinyl]-N-(tetrahydro-pyran-4-yl)-nicotinamide]
18.6	CCCCc1noc(C)c1/C=C/c1ccc(C(=O)NC(C)C)cn1 [Example 8, 6-[(E)-2-(3-Butyl-5-methyl-isoxazol-4-yl)-vinyl]-N-isopropyl-nicotinamide]
8.9	CCCCc1noc(C)c1/C=C/c1ccc(C(=O)NC2CCOC2)cn1 (stereo not drawn) [Example 9, 6-[(E)-2-(3-Butyl-5-methyl-isoxazol-4-yl)-vinyl]-N-(tetrahydro-furan-3-yl)-nicotinamide]
12.9	CCCCc1noc(C)c1/C=C/c1ccc(C(=O)NC2CCOCC2)cn1 [Example 12, 6-[(E)-2-(3-Butyl-5-methyl-isoxazol-4-yl)-vinyl]-N-(tetrahydro-pyran-4-yl)-nicotinamide]
12.2	CCCCc1noc(C)c1/C=C/c1ccc(C(=O)N[C@H](C)CO)cn1 [Example 13, 6-[(E)-2-(3-Butyl-5-methyl-isoxazol-4-yl)-vinyl]-N—((R)-2-hydroxy-1-methyl-ethyl)-nicotinamide]
8.1	CCCCc1noc(C)c1/C=C/c1ccc(C(=O)OC)cn1 [Example 7, 6-[(E)-2-(3-Butyl-5-methyl-isoxazol-4-yl)-vinyl]nicotinic acid methyl ester]
